Source: patent US20040157784A1, “Opiod tannate compositions” (Jame Fine Chemicals, Inc., priority 2003, published 2004)

Experiment: Solubility of hydrocodone free base in methylene chloride (solvent of the reaction completion test)

## COc1ccc2c3c1O[C@H]1C(=O)CC[C@H]4[C@@H](C2)N(C)CC[C@]314 [hydrocodone free base]
  soluble to the extent of (methylene chloride): 99.94%
